Assay results from US20250179059A1 (The Regents of the University of California, priority 2021, published 2025).
Where a name gives a salt, the structure may show the parent alone.

Molecular target: T1, human BRD4 bromodomain II (Homo sapiens, UniProt O60885)
T1 construct: human BRD4 bromodomain II [based on Genbank NM_058243, residues 349-460]; host or cells: E. coli
Assay: Bromodomain binding assay (AlphaScreen), BRD4 BDII
Conditions: AlphaScreen assay, Table C2; read-out: BRD4 BDII IC50
Description: Bromodomain Binding Assay
The bromodomain binding assay utilizes AlphaScreen technology. Compounds compete with a biotinylated peptide ligand (from histone H4: aa 1-21, K5/K8/K12/K16Ac-biotin) for binding to a hexahistidine (His6)-tagged bromodomain. Peptide binding is detected by fluorescence signal after singlet oxygen energy transfer from peptide-bound AlphaScreen streptavidin-coated donor beads to His6-tagged bromodomain-bound nickel-chelate acceptor beads (PerkinElmer). Briefly, 8 μL 2.5× bromodomain (E. coli expressed, N-terminal His6-tagged human BRD4 bromodomain II [based on Genbank NM_058243, residues 349-460] or N-terminal His6-tagged human BRD4 bromodomain I [residues 44-170]) in reaction buffer (50 mM HEPES [pH 7.5], 100 mM NaCl, 0.05% CHAPS, 0.1% BSA, 1% DMSO) is added to wells of an assay plate (384-well low flange white, flat bottom, polystyrene microplate, Corning #3572; buffer only is added to some wells as a negative control). A compound concentration series (10 concentrations, 3-fold serial dilutions previously prepared in 100% DMSO, or 100% DMSO only negative control) is delivered to the assay plate with an Echo 550 acoustic liquid handler (Labcyte), followed by plate centrifugation and incubation for 30 minutes at room temperature. Then 4 μL 5× biotinylated peptide ligand is added, followed by plate centrifugation and gentle shaking for 30 minutes at room temperature to mix. After this incubation, 4 μL 5× donor beads are added, and the plate is centrifuged, followed by brief gentle shaking to mix. Finally, 4 μL 5× acceptor beads are added, and the plate is centrifuged, followed by gentle shaking for 60 minutes at room temperature in the dark. AlphaScreen signal (excitation/emission: 680 nm/520-620 nm) is detected with an EnSpire multimode plate reader (PerkinElmer). Percentage peptide binding is plotted as a function of concentration, and curve fitting is used to determine competitive compound binding ICsos.

Compound	IC50 [nM]
CC(=O)Nc1ccc(-c2cccc(-c3ccc(Cl)cc3)c2O)cc1F [Example 81, N-(4″-Chloro-3-fluoro-2′-hydroxy-[1,1′:3′,1″-terphenyl]-4-yl)acetamide]	> 100
CC(=O)N1CCCc2cc(-c3cccc(-c4cc(N5CCNCC5)no4)c3O)ccc21 [Example 36, 1-(6-(2-Hydroxy-3-(3-(piperazin-1-yl)isoxazol-5-yl)phenyl)-3,4-dihydroquinolin-1(2H)-yl)ethanone 2,2,2-trifluoroacetate]	> 100
CC(=O)Nc1ccc(-c2cccc(-c3cc(N4CCNCC4)no3)c2O)cc1Cl [Example 32, N-(3-Chloro-2′-hydroxy-3′-(3-(piperazin-1-yl)isoxazol-5-yl)-[1,1'-biphenyl]-4-yl)acetamide 2,2,2-trifluoroacetate]	10 to 100
CC(=O)Nc1ccc(-c2cccc(-c3cnc(-c4ccccc4)o3)c2O)cc1F [Example 85, N-(3-Fluoro-2′-hydroxy-3′-(2-phenyloxazol-5-yl)-[1,1′-biphenyl]-4-yl)acetamide]	> 100
CC(=O)Nc1ccc(-c2cccc(-c3cc(N4CCN(S(C)(=O)=O)CC4)no3)c2O)cc1 [Example 143, N-(2′-hydroxy-3′-(3-(4-(methylsulfonyl)piperazin-1-yl)isoxazol-5-yl)-[1,1′-biphenyl]-4-yl)acetamide]	> 100
CC(=O)Nc1ccc(-c2cccc(-c3cccc(OC(C)C)c3)c2O)cc1F [Example 107, N-(3-Fluoro-2′-hydroxy-3″-isopropoxy-[1,1′:3′,1″-terphenyl]-4-yl)acetamide]	> 100
COc1cc(-c2cccc(-c3cc(F)c(N4CCCC4=O)c(F)c3)c2O)ccc1NC(C)=O [Example 133, N-(3″,5″-Difluoro-2′-hydroxy-3-methoxy-4″-(2-oxopyrrolidin-1-yl)-[1,1′:3′,1″-terphenyl]-4-yl)acetamide]	10 to 100
CC(=O)N(C)c1ccc(-c2cccc(-c3cc(N4CCNCC4)no3)c2O)cc1 [Example 9, N-(2′-Hydroxy-3′-(3-(piperazin-1-yl)isoxazol-5-yl)-[1,1′-biphenyl]-4-yl)-N-methylacetamide]	> 100
CC(=O)Nc1ccc(-c2cccc(-c3ccc(NC(C)=O)c(Cl)c3)c2O)cc1F [Example 46, N,N′-(3-Chloro-3″-fluoro-2′-hydroxy-[1,1′:3′,1″-terphenyl]-4,4″-diyl)diacetamide]	> 100
COc1cc(-c2cccc(-c3cc(Cl)c(NC(C)=O)c(Cl)c3)c2O)ccc1NC(C)=O [Example 132, N,N′-(3,5-Dichloro-2′-hydroxy-3″-methoxy-[1,1′:3′,1″-terphenyl]-4,4″-diyl)diacetamide]	10 to 100
CC(=O)Nc1ccc(-c2cccc(-c3cc(C)c(NC(C)=O)c(F)c3)c2O)cc1F [Example 139, N,N′-(3,3″-difluoro-2′-hydroxy-5-methyl-[1,1′:3′,1″-terphenyl]-4,4″-diyl)diacetamide]	> 100
CC(=O)Nc1ccc(-c2cccc(-c3cc(N4CCNCC4)no3)c2O)cc1C#N [Example 64, N-(3-Cyano-2′-hydroxy-3′-(3-(piperazin-1-yl)isoxazol-5-yl)-[1,1′-biphenyl]-4-yl)acetamide 2,2,2-trifluoroacetate]	10 to 100
CC(=O)Nc1ccc(-c2cccc(-c3cc(N4CCNCC4)no3)c2O)cc1OC(C)C [Example 20, N-(2′-Hydroxy-3-isopropoxy-3′-(3-(piperazin-1-yl)isoxazol-5-yl)-[1,1′-biphenyl]-4-yl)acetamide]	10 to 100
CC(=O)Nc1ccc(-c2cccc(-c3cc(N4CCNCC4)no3)c2O)cc1OC1CC1 [Example 44, N-(3-Cyclopropoxy-2′-hydroxy-3′-(3-(piperazin-1-yl)isoxazol-5-yl)-[1,1′-biphenyl]-4-yl)acetamide 2,2,2-trifluoroacetate]	10 to 100
COc1c(-c2ccc(NC(C)=O)cc2)cccc1-c1cc(N2CCN(C)CC2)no1 [Example 7]	> 100
O=C1NCCN1c1ccc(-c2cccc(-c3cc(N4CCNCC4)no3)c2O)cc1 [Example 41, 1-(2′-Hydroxy-3′-(3-(piperazin-1-yl)isoxazol-5-yl)-[1,1′-biphenyl]-4-yl)imidazolidin-2-one 2,2,2-trifluoroacetate]	10 to 100
CC(=O)Nc1ccc(-c2cccc(-c3cc(N4CCNCC4)no3)c2O)cc1C [Example 21, N-(2′-Hydroxy-3-methyl-3′-(3-(piperazin-1-yl)isoxazol-5-yl)-[1,1′-biphenyl]-4-yl)acetamide hydrochloride]	> 100
O=C1CCCN1c1ccc(-c2cccc(-c3cc(N4CCNCC4)no3)c2O)cc1 [Example 43, 1-(2′-Hydroxy-3′-(3-(piperazin-1-yl)isoxazol-5-yl)-[1,1′-biphenyl]-4-yl)pyrrolidin-2-one 2,2,2-trifluoroacetate]	10 to 100
CC(=O)Nc1ccc(-c2cccc(-c3cccc(F)c3)c2O)cc1F [Example 54, N-(3,3″-Difluoro-2′-hydroxy-[1,1′:3′,1″-terphenyl]-4-yl)acetamide]	> 100
CC(=O)Nc1ccc(-c2cccc(-c3cc(N4CCNCC4)no3)c2O)cc1Oc1ccccc1 [Example 68, N-(2′-Hydroxy-3-phenoxy-3′-(3-(piperazin-1-yl)isoxazol-5-yl)-[1,1′-biphenyl]-4-yl)acetamide 2,2,2-trifluoroacetate]	10 to 100
CC(=O)Nc1ccc(-c2cccc(-c3ccc(NC(C)=O)c(C(C)C)c3)c2O)cc1F [Example 96, N,N′-(3-Fluoro-2′-hydroxy-3″-isopropyl-[1,1′:3′,1″-terphenyl]-4,4″diyl)diacetamide]	> 100
COc1ccc(-c2cccc(-c3ccc(NC(C)=O)c(F)c3)c2O)cn1 [Example 98, N-(3-Fluoro-2′-hydroxy-3′-(6-methoxypyridin-3-yl)-[1,1′-biphenyl]-4-yl)acetamide]	10 to 100
CC(=O)Nc1ccc(-c2cccc(-c3ccc(NC(C)=O)c(C(F)(F)F)c3)c2O)cc1F [Example 138, N,N′-(3-fluoro-2′-hydroxy-3″-(trifluoromethyl)-[1,1′:3′,1″-terphenyl]-4,4″-diyl)diacetamide]	> 100

The next lines start with the values.

IC50 [nM]	Compound
1 to 10	CC(=O)Nc1ccc(-c2cc(F)cc(-c3ccc(Cl)c(N4CCNCC4)c3)c2O)cc1F [Example 242, N-(4″-chloro-3,5′-difluoro-2′-hydroxy-3″-(piperazin-1-yl)-[1,1″-terphenyl]-4-yl)acetamide]
10 to 100	COC(=O)c1cc(-c2cccc(-c3ccc(NC(C)=O)c(F)c3)c2O)ccn1 [Example 201, Methyl 4-(4′-acetamido-3′-fluoro-2-hydroxy-[1,1′-biphenyl]-3-yl)picolinate]
> 100	CC(=O)Nc1ccc(-c2cccc(-c3cc4ccccc4[nH]3)c2O)cc1F [Example 156, N-(3-fluoro-2′-hydroxy-3′-(1H-indol-2-yl)-[1,1′-biphenyl]-4-yl)acetamide]
1 to 10	CC(=O)Nc1ccc(-c2cccc(-c3cccc(C4CCNCC4)c3)c2O)cc1F [Example 210, N-(3-fluoro-2′-hydroxy-3″-(piperidin-4-yl)-[1,1′:3′,1″-terphenyl]-4-yl)acetamide]
10 to 100	CC(=O)Nc1ccc(-c2cccc(-c3cc(N4CCN(C5COC5)CC4)no3)c2O)cc1F [Example 153, N-(3-fluoro-2′-hydroxy-3′-(3-(4-(oxetan-3-yl)piperazin-1-yl)isoxazol-5-yl)-[1,1′-biphenyl]-4-yl)acetamide]
10 to 100	CC(=O)Nc1c(F)cc(-c2cccc(-c3cccc(N4CCNCC4)c3)c2O)cc1OC1CC1 [Example 175, N-(3-cyclopropoxy-5-fluoro-2′-hydroxy-3″-(piperazin-1-yl)-[1,1′:3′,1″-terphenyl]-4-yl)acetamide]
> 100	CC(=O)Nc1ccc(-c2cccc(-c3cccc(-c4cn[nH]n4)c3)c2O)cc1F [Example 243, N-(3-fluoro-2′-hydroxy-3″-(2H-1,2,3-triazol-4-yl)-[1,1′:3′,1″-terphenyl]-4-yl)acetamide]
> 100	CC(=O)Nc1ccc(-c2cccc(-c3ccnc(N4CCNCC4)c3)c2C(F)F)cc1F [Example 250, N-(2′-(difluoromethyl)-3-fluoro-3′-(2-(piperazin-1-yl)pyridin-4-yl)-[1,1′-biphenyl]-4-yl)acetamide]
> 100	CC(=O)Nc1ccc(-c2cccc(-c3cccc(N4CCCCC4)c3)c2O)cc1F [Example 166, N-(3-fluoro-2′-hydroxy-3″-(piperidin-1-yl)-[1,1′:3′,1″-terphenyl]-4-yl)acetamide]
10 to 100	CCN1CCN(c2cc(-c3cccc(-c4ccc(NC(C)=O)c(F)c4)c3O)on2)CC1 [Example 151, N-(3′-(3-(4-ethylpiperazin-1-yl)isoxazol-5-yl)-3-fluoro-2′-hydroxy-[1,1′-biphenyl]-4-yl)acetamide]
> 100	COc1ccc(C)c(-c2cccc(-c3ccc(NC(C)=O)c(F)c3)c2O)c1 [Example 147, N-(3-fluoro-2′-hydroxy-5″-methoxy-2″-methyl-[1,1′:3′,1″-terphenyl]-4-yl)acetamide]
